Experimental data as given in ChEMBL document CHEMBL3044749, “Synthesis, characterization, in vitro hydrolysis and pharmacodynamic profiles of potential novel mutual prodrugs of N-(2,3-xylyl anthranilic acid)” (Med Chem Res, 2013).

Columns and labels:
Rattus norvegicus [1] = assay: Anti-inflammatory activity in Wistar albino Rattus norvegicus (rat) assessed as inhibition of carrageenan-induced paw edema at 27.65 mg/kg, po administered 1 hr prior to carrageenan injection measured after 8 hr by mercury plethysmometer (reference value: 0%); format: functional
Mus musculus [2] = assay: Analgesic activity in Swiss Mus musculus (mouse) assessed as inhibition of acetic acid-induced abdominal writhing at 27.65 mg/kg, po administered 1 hr prior to acetic acid injection measured for 10 min; format: functional; conditions: Abdomen
[3] = Stability of the compound assessed as prodrug hydrolysis in non-enzymatic simulated gastric fluid at 37 degC at pH 1.2 measured for 2 hr by UV spectrophotometer analysis; format: physicochemical; conditions: simulated gi fluid, pH 1.2, 2 h
Rattus norvegicus [4] = assay: Anti-inflammatory activity in Wistar albino Rattus norvegicus (rat) assessed as inhibition of carrageenan-induced paw edema at 27.65 mg/kg, po administered 1 hr prior to carrageenan injection measured after 1 hr by mercury plethysmometer (reference value: 0%); format: functional
Rattus norvegicus [5] = assay: Anti-inflammatory activity in Wistar albino Rattus norvegicus (rat) assessed as inhibition of carrageenan-induced paw edema at 27.65 mg/kg, po administered 1 hr prior to carrageenan injection measured after 2 hr by mercury plethysmometer (reference value: 0%); format: functional
Rattus norvegicus [6] = assay: Anti-inflammatory activity in Wistar albino Rattus norvegicus (rat) assessed as inhibition of carrageenan-induced paw edema at 27.65 mg/kg, po administered 1 hr prior to carrageenan injection measured after 3 hr by mercury plethysmometer (reference value: 0%); format: functional
[7] = Half life in simulated gastrointestinal fluid at 37 degC at pH 1.2 by UV spectrophotometer analysis; format: ADME
Rattus norvegicus [8] = assay: Anti-inflammatory activity in Wistar albino Rattus norvegicus (rat) assessed as inhibition of carrageenan-induced paw edema at 27.65 mg/kg, po administered 1 hr prior to carrageenan injection measured after 4 hr by mercury plethysmometer (reference value: 0%); format: functional
Rattus norvegicus [9] = assay: Anti-inflammatory activity in Wistar albino Rattus norvegicus (rat) assessed as inhibition of carrageenan-induced paw edema at 27.65 mg/kg, po administered 1 hr prior to carrageenan injection measured after 6 hr by mercury plethysmometer (reference value: 0%); format: functional
Rattus norvegicus [10] = assay: Gastrointestinal toxicity in Wistar albino Rattus norvegicus (rat) assessed as ulcerogenicity index at 27.65 mg/kg, po administered for 7 days measured on day 8 (reference value: 0 no unit); format: organism-based; design: dose 27.65 mg/kg, route oral; conditions: in vivo, 168 h
[11] = Half life in simulated intestinal fluid at 37 degC at pH 7.4 by UV spectrophotometer analysis; format: ADME
Rattus norvegicus [12] = assay: Anti-inflammatory activity in Wistar albino Rattus norvegicus (rat) assessed as inhibition of carrageenan-induced paw edema at 24.65 mg/kg, po administered 1 hr prior to carrageenan injection measured after 4 hr by mercury plethysmometer (reference value: 0%); format: functional
Mus musculus [13] = assay: Analgesic activity in Swiss Mus musculus (mouse) assessed as inhibition of acetic acid-induced abdominal writhing at 24.65 mg/kg, po administered 1 hr prior to acetic acid injection measured for 10 min; format: functional; conditions: Abdomen
Rattus norvegicus [14] = assay: Anti-inflammatory activity in Wistar albino Rattus norvegicus (rat) assessed as inhibition of carrageenan-induced paw edema at 24.65 mg/kg, po administered 1 hr prior to carrageenan injection measured after 3 hr by mercury plethysmometer (reference value: 0%); format: functional
Rattus norvegicus [15] = assay: Anti-inflammatory activity in Wistar albino Rattus norvegicus (rat) assessed as inhibition of carrageenan-induced paw edema at 24.65 mg/kg, po administered 1 hr prior to carrageenan injection measured after 8 hr by mercury plethysmometer (reference value: 0%); format: functional
Rattus norvegicus [16] = assay: Gastrointestinal toxicity in Wistar albino Rattus norvegicus (rat) assessed as ulcerogenicity index at 24.65 mg/kg, po administered for 7 days measured on day 8 (reference value: 0 no unit); format: organism-based; design: dose 24.65 mg/kg, route oral; conditions: in vivo, 168 h
Rattus norvegicus [17] = assay: Anti-inflammatory activity in Wistar albino Rattus norvegicus (rat) assessed as inhibition of carrageenan-induced paw edema at 24.65 mg/kg, po administered 1 hr prior to carrageenan injection measured after 2 hr by mercury plethysmometer (reference value: 0%); format: functional
Rattus norvegicus [18] = assay: Anti-inflammatory activity in Wistar albino Rattus norvegicus (rat) assessed as inhibition of carrageenan-induced paw edema at 24.65 mg/kg, po administered 1 hr prior to carrageenan injection measured after 1 hr by mercury plethysmometer (reference value: 0%); format: functional
Rattus norvegicus [19] = assay: Anti-inflammatory activity in Wistar albino Rattus norvegicus (rat) assessed as inhibition of carrageenan-induced paw edema at 24.65 mg/kg, po administered 1 hr prior to carrageenan injection measured after 6 hr by mercury plethysmometer (reference value: 0%); format: functional
Mus musculus [20] = assay: Analgesic activity in Swiss Mus musculus (mouse) assessed as inhibition of acetic acid-induced abdominal writhing at 23 mg/kg, po administered 1 hr prior to acetic acid injection measured for 10 min; format: functional; conditions: Abdomen
Rattus norvegicus [21] = assay: Anti-inflammatory activity in Wistar albino Rattus norvegicus (rat) assessed as inhibition of carrageenan-induced paw edema at 23 mg/kg, po administered 1 hr prior to carrageenan injection measured after 1 hr by mercury plethysmometer (reference value: 0%); format: functional
Rattus norvegicus [22] = assay: Anti-inflammatory activity in Wistar albino Rattus norvegicus (rat) assessed as inhibition of carrageenan-induced paw edema at 23 mg/kg, po administered 1 hr prior to carrageenan injection measured after 2 hr by mercury plethysmometer (reference value: 0%); format: functional
Rattus norvegicus [23] = assay: Gastrointestinal toxicity in Wistar albino Rattus norvegicus (rat) assessed as ulcerogenicity index at 23 mg/kg, po administered for 7 days measured on day 8 (reference value: 0 no unit); format: organism-based; design: dose 23 mg/kg, route oral; conditions: in vivo, 168 h
Rattus norvegicus [24] = assay: Anti-inflammatory activity in Wistar albino Rattus norvegicus (rat) assessed as inhibition of carrageenan-induced paw edema at 23 mg/kg, po administered 1 hr prior to carrageenan injection measured after 3 hr by mercury plethysmometer (reference value: 0%); format: functional
Rattus norvegicus [25] = assay: Anti-inflammatory activity in Wistar albino Rattus norvegicus (rat) assessed as inhibition of carrageenan-induced paw edema at 23 mg/kg, po administered 1 hr prior to carrageenan injection measured after 6 hr by mercury plethysmometer (reference value: 0%); format: functional
Rattus norvegicus [26] = assay: Anti-inflammatory activity in Wistar albino Rattus norvegicus (rat) assessed as inhibition of carrageenan-induced paw edema at 23 mg/kg, po administered 1 hr prior to carrageenan injection measured after 4 hr by mercury plethysmometer (reference value: 0%); format: functional
Rattus norvegicus [27] = assay: Anti-inflammatory activity in Wistar albino Rattus norvegicus (rat) assessed as inhibition of carrageenan-induced paw edema at 23 mg/kg, po administered 1 hr prior to carrageenan injection measured after 8 hr by mercury plethysmometer (reference value: 0%); format: functional
Rattus norvegicus [28] = assay: Anti-inflammatory activity in Wistar albino Rattus norvegicus (rat) assessed as inhibition of carrageenan-induced paw edema at 13 mg/kg, po administered 1 hr prior to carrageenan injection measured after 2 hr by mercury plethysmometer (reference value: 0%); format: functional
Rattus norvegicus [29] = assay: Anti-inflammatory activity in Wistar albino Rattus norvegicus (rat) assessed as inhibition of carrageenan-induced paw edema at 13 mg/kg, po administered 1 hr prior to carrageenan injection measured after 6 hr by mercury plethysmometer (reference value: 0%); format: functional
Rattus norvegicus [30] = assay: Anti-inflammatory activity in Wistar albino Rattus norvegicus (rat) assessed as inhibition of carrageenan-induced paw edema at 13 mg/kg, po administered 1 hr prior to carrageenan injection measured after 3 hr by mercury plethysmometer (reference value: 0%); format: functional
Rattus norvegicus [31] = assay: Anti-inflammatory activity in Wistar albino Rattus norvegicus (rat) assessed as inhibition of carrageenan-induced paw edema at 13 mg/kg, po administered 1 hr prior to carrageenan injection measured after 8 hr by mercury plethysmometer (reference value: 0%); format: functional
Rattus norvegicus [32] = assay: Gastrointestinal toxicity in Wistar albino Rattus norvegicus (rat) assessed as ulcerogenicity index at 13 mg/kg, po administered for 7 days measured on day 8 (reference value: 0 no unit); format: organism-based; design: dose 13 mg/kg, route oral; conditions: in vivo, 168 h
Rattus norvegicus [33] = assay: Anti-inflammatory activity in Wistar albino Rattus norvegicus (rat) assessed as inhibition of carrageenan-induced paw edema at 13 mg/kg, po administered 1 hr prior to carrageenan injection measured after 4 hr by mercury plethysmometer (reference value: 0%); format: functional
Rattus norvegicus [34] = assay: Anti-inflammatory activity in Wistar albino Rattus norvegicus (rat) assessed as inhibition of carrageenan-induced paw edema at 13 mg/kg, po administered 1 hr prior to carrageenan injection measured after 1 hr by mercury plethysmometer (reference value: 0%); format: functional
Mus musculus [35] = assay: Analgesic activity in Swiss Mus musculus (mouse) assessed as inhibition of acetic acid-induced abdominal writhing at 13 mg/kg, po administered 1 hr prior to acetic acid injection measured for 10 min; format: functional; conditions: Abdomen

SMILES: Cc1cccc(Nc2ccccc2C(=O)NCC(=O)OCc2c(C(C)C)c(=O)n(-c3ccccc3)n2C)c1C
- inhibition in vivo at 27.65 mg/kg (Rattus norvegicus [1]): 10%
- inhibition in vivo at 27.65 mg/kg (Mus musculus [2]): 63.9%
- Stability [3]: Stable
- inhibition in vivo at 27.65 mg/kg (Rattus norvegicus [4]): 23.3%
- inhibition in vivo at 27.65 mg/kg (Rattus norvegicus [5]): 77.2%
- inhibition in vivo at 27.65 mg/kg (Rattus norvegicus [6]): 85.7%
- half-life [7]: 18.7 h
- inhibition in vivo at 27.65 mg/kg (Rattus norvegicus [8]): 83.7%
- inhibition in vivo at 27.65 mg/kg (Rattus norvegicus [9]): 38.5%
- UI (Rattus norvegicus [10]): 1
- half-life [11]: 8.98 h

SMILES: Cc1cccc(Nc2ccccc2C(=O)OCc2c(C(C)C)c(=O)n(-c3ccccc3)n2C)c1C
- inhibition in vivo at 24.65 mg/kg (Rattus norvegicus [12]): 72.6%
- inhibition in vivo at 24.65 mg/kg (Mus musculus [13]): 81.7%
- Stability [3]: Stable
- inhibition in vivo at 24.65 mg/kg (Rattus norvegicus [14]): 71.4%
- inhibition in vivo at 24.65 mg/kg (Rattus norvegicus [15]): 44%
- half-life [7]: 16.2 h
- UI (Rattus norvegicus [16]): 0.25
- inhibition in vivo at 24.65 mg/kg (Rattus norvegicus [17]): 59.1%
- inhibition in vivo at 24.65 mg/kg (Rattus norvegicus [18]): 13.3%
- half-life [11]: 7.37 h
- inhibition in vivo at 24.65 mg/kg (Rattus norvegicus [19]): 62.9%

SMILES: CC(C)c1c(CO)n(C)n(-c2ccccc2)c1=O [3-HYDROXYMETHYL PROPYPHENAZONE]
- inhibition in vivo at 23 mg/kg (Mus musculus [20]): 78.3%
- inhibition in vivo at 23 mg/kg (Rattus norvegicus [21]): 31.5%
- inhibition in vivo at 23 mg/kg (Rattus norvegicus [22]): 46.4%
- UI (Rattus norvegicus [23]): 1.25
- inhibition in vivo at 23 mg/kg (Rattus norvegicus [24]): 40.2%
- inhibition in vivo at 23 mg/kg (Rattus norvegicus [25]): 23.7%
- inhibition in vivo at 23 mg/kg (Rattus norvegicus [26]): 31.2%
- inhibition in vivo at 23 mg/kg (Rattus norvegicus [27]): 12%

SMILES: Cc1cccc(Nc2ccccc2C(=O)O)c1C [MEFENAMIC ACID]
- inhibition in vivo at 13 mg/kg (Rattus norvegicus [28]): 52.2%
- inhibition in vivo at 13 mg/kg (Rattus norvegicus [29]): 24.3%
- inhibition in vivo at 13 mg/kg (Rattus norvegicus [30]): 53.1%
- inhibition in vivo at 13 mg/kg (Rattus norvegicus [31]): 20%
- UI (Rattus norvegicus [32]): 3.17
- inhibition in vivo at 13 mg/kg (Rattus norvegicus [33]): 35.6%
- inhibition in vivo at 13 mg/kg (Rattus norvegicus [34]): 38.4%
- inhibition in vivo at 13 mg/kg (Mus musculus [35]): 61.1%
